According to US8273890B2 (4SC AG, priority 2007, dated 2012):

Biological target: T1, recombinant Plk1 protein (Homo sapiens, UniProt P53350)
T1 construct: histidine tag (N); made in house; host or cells: SF9 insect cells
Experiment: Plk1 kinase activity inhibition assay (33P-ATP, alpha casein substrate, flash plates)
Assay type: biochemical
Conditions: enzymatic assay, 100 nM Li-ATP, 80 minutes at 30° C.
Experimental: The inhibition of Plk1 kinase activity can be measured using recombinant Plk1 protein expressed as an N-terminally histidine-tagged protein in SF9 insect cells and alpha casein as substrate. The Plk1 assay is run in 96 well plates by incubating 50 to 100 ng per well recombinant Plk1, 500 ng per well alpha casein (Sigma, # C-6780) as substrate, 10 μl of compound of invention (test compounds were dissolved as 20 mM solutions in dimethylsulfoxide (DMSO) and subsequently diluted), and 100 nM Li-ATP (including ^33P-ATP) in 100 μl of reaction buffer ([…] HEPES, pH 7.5; 3 mM MgCl2; 3 mM MnCl2; 3 μM Na-Orthovanadat; 1 mM DTT; 1 μg/ml PEG 8000) for 80 minutes at 30° C. The reactions are terminated by adding 100 μl stopping buffer (2% H3PO4 for 5 minutes) and are washed 3 times with washing solution (0.9% NaCl). Determining ^33P incorporated into the protein substrate alpha casein, the detection is based on the adhesion of the phosphorylated protein to the surface of scintillator-coated flash plates (Perkin Elmer, USA; #SMP-200). Phosphorylation of alpha casein is measured by counting the radioactivity bound to the plate for 60 sec. using a plate reader (Perkin Elmer, USA; Wallac Microbeta). By this method, the IC50 value of the Plk1 inhibition is determined as described above.

T1 sequence (P53350 whole entry): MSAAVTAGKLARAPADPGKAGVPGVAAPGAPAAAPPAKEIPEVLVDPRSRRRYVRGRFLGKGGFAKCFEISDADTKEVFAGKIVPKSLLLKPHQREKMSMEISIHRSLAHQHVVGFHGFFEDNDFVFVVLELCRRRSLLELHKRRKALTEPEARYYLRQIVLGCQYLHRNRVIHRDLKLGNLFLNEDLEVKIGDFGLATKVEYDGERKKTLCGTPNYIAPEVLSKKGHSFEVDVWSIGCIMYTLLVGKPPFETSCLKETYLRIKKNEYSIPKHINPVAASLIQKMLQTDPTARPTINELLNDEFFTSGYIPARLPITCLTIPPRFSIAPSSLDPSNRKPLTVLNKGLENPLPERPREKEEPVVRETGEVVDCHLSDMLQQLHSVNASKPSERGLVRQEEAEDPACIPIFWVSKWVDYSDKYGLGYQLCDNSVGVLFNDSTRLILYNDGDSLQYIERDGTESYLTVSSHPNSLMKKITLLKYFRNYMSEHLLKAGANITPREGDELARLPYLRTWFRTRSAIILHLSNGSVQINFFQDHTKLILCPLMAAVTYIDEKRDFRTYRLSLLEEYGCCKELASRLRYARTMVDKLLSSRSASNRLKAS

SMILES: C[C@@H](Oc1cc(-n2cnc3cnc(CN4CCCN(C)CC4)cc32)sc1C(N)=O)c1ccccc1C(F)(F)F [Example 164, 5-{6-[(4-methyl-1,4-diazepan-1-yl)methyl]-1H-imidazo[4,5-c]pyridin-1-yl}-3-{(1R)-1-[2-(trifluoromethyl)phenyl]ethoxy}thiophene-2-carboxamide]
- IC50: < 10 nM

SMILES: C[C@@H](Oc1cc(-n2cnc3cnc(CN4CCN(c5ncccn5)CC4)cc32)sc1C(N)=O)c1ccccc1C(F)(F)F [Example 77, 5-{6-[(4-pyrimidin-2-ylpiperazin-1-yl)methyl]-1H-imidazo[4,5-c]pyridin-1-yl}-3-{(1R)-1-[2-(trifluoromethyl)phenyl]ethoxy}thiophene-2-carboxamide]
- IC50: 10 to 100 nM

SMILES: CN1CCN(Cc2cc3c(cn2)ncn3-c2cc(OC(c3ccccc3Cl)C(F)(F)F)c(C(N)=O)s2)CC1 (stereo not shown) [Example 76, 3-[1-(2-chlorophenyl)-2,2,2-trifluoroethoxy]-5-{6-[(4-methylpiperazin-1-yl)methyl]-1H-imidazo[4,5-c]pyridin-1-yl}thiophene-2-carboxamide]
- IC50: < 10 nM

SMILES: C[C@@H](Oc1cc(-n2cnc3cnc(CN4CCS(=O)(=O)CC4)cc32)sc1C(N)=O)c1ccccc1C(F)(F)F [Example 63, 5-{6-[(1,1-dioxidothiomorpholin-4-yl)methyl]-1H-imidazo[4,5-c]pyridin-1-yl}-3-{(1R)-1-[2-(trifluoromethyl)phenyl]ethoxy}thiophene-2-carboxamide]
- IC50: 10 to 100 nM

SMILES: C[C@@H](Oc1cc(-n2cnc3cnc(CNCCO)cc32)sc1C(N)=O)c1ccccc1C(F)(F)F [Example 104, 5-(6-{[(2-hydroxyethyl)amino]methyl}-1H-imidazo[4,5-c]pyridin-1-yl)-3-{(1R)-1-[2-(trifluoromethyl)phenyl]ethoxy}thiophene-2-carboxamide]
- IC50: 10 to 100 nM

SMILES: COc1cc2c(cn1)ncn2-c1cc(OCc2ccccc2C(F)(F)F)c(C(=O)O)s1 [Example 18, 5-(6-Methoxy-1H-imidazo[4,5-c]pyridin-1-yl)-3-{[2-(trifluoromethyl)benzyl]oxy}thiophene-2-carboxylic acid]
- IC50: 10 to 100 nM

SMILES: NC(=O)c1sc(-n2cnc3cnc(CNC4CC4)cc32)cc1OCc1ccccc1C(F)(F)F [Example 7, 5-{6-[(Cyclopropylamino)methyl]-1H-imidazo[4,5-c]pyridin-1-yl}-3-{[2-(trifluoromethyl)benzyl]oxy}thiophene-2-carboxamide]
- IC50: 10 to 100 nM

SMILES: NC(=O)c1sc(-n2cnc3ccncc32)cc1OCc1ccccc1C(F)(F)F [Example 3, 5-(3H-Imidazo[4,5-c]pyridin-3-yl)-3-{[2-(trifluoromethyl)benzyl]oxy}thio-phene-2-carboxamide]
- IC50: 100 to 1000 nM

SMILES: COc1cc2c(cn1)ncn2-c1cc(OCc2ccccc2C(F)(F)F)c(C(N)=O)s1 [Example 16, 5-(6-Methoxy-1H-imidazo[4,5-c]pyridin-1-yl)-3-{[2-(trifluoromethyl)benzyl]oxy}thiophene-2-carboxamide]
- IC50: 10 to 100 nM

SMILES: NC(=O)c1sc(-n2cnc3ncccc32)cc1OCc1ccccc1C(F)(F)F [Example 20, 5-(1H-Imidazo[4,5-b]pyridin-1-yl)-3-{[2-(trifluoromethyl)benzyl]oxy}thio-phene-2-carboxamide]
- IC50: 100 to 1000 nM

SMILES: C[C@@H](Oc1cc(-n2cnc3cnc(CN4CCC(C(=O)N5CCN(C)CC5)CC4)cc32)sc1C(N)=O)c1ccccc1C(F)(F)F [Example 91, 5-[6-({4-[(4-methylpiperazin-1-yl)carbonyl]piperidin-1-yl}methyl)-1H-imidazo[4,5-c]pyridin-1-yl]-3-{(1R)-1-[2-(trifluoromethyl)phenyl]ethoxy}thiophene-2-carboxamide]
- IC50: 10 to 100 nM

SMILES: C[C@@H](Oc1cc(-n2cnc3cnc(CN4CCN(CC(=O)N5CCCC5)CC4)cc32)sc1C(N)=O)c1ccccc1C(F)(F)F [Example 145, 5-(6-{[4-(2-oxo-2-pyrrolidin-1-ylethyl)piperazin-1-yl]methyl}-1H-imidazo[4,5-c]pyridin-1-yl)-3-{(1R)-1-[2-(trifluoromethyl)phenyl]ethoxy}thiophene-2-carboxamide]
- IC50: 10 to 100 nM

SMILES: C[C@@H](Oc1cc(-n2cnc3cnc(CN4CCC(O)C4)cc32)sc1C(N)=O)c1ccccc1C(F)(F)F (stereo partly drawn) [Example 94, 5-{6-[(3-hydroxypyrrolidin-1-yl)methyl]-1H-imidazo[4,5-c]pyridin-1-yl}-3-{(1R)-1-[2-(trifluoromethyl)phenyl]ethoxy}thiophene-2-carboxamide]
- IC50: < 10 nM

SMILES: C[C@@H](Oc1cc(-n2cnc3cc(CO)ncc32)sc1C(N)=O)c1ccccc1C(F)(F)F [Example 47, 5-[6-(hydroxymethyl)-3H-imidazo[4,5-c]pyridin-3-yl]-3-{(1R)-1-[2-(trifluoromethyl)phenyl]ethoxy}thiophene-2-carboxamide]
- IC50: 10 to 100 nM

SMILES: C[C@@H](Oc1cc(-n2cnc3cnc(CN4CCN(C)C(=O)C4)cc32)sc1C(N)=O)c1ccccc1C(F)(F)F [Example 72, 5-{6-[(4-methyl-3-oxopiperazin-1-yl)methyl]-1H-imidazo[4,5-c]pyridin-1-yl}-3-{(1R)-1-[2-(trifluoromethyl)phenyl]ethoxy}thiophene-2-carboxamide]
- IC50: < 10 nM

SMILES: CC(Oc1cc(-n2cnc3cnc(CN4CCN(C(=O)N(C)C)CC4)cc32)sc1C(N)=O)c1ccccc1OC(F)F (stereo not shown) [Example 134, 4-{[1-(5-carbamoyl-4-{1-[2-(difluoromethoxy)phenyl]ethoxy}-2-thienyl)-1H-imidazo[4,5-c]pyridin-6-yl]methyl}-N,N-dimethylpiperazine-1-carboxamide]
- IC50: < 10 nM

SMILES: NC(=O)c1sc(-n2cnc3cnccc32)cc1OCc1cccc(C(F)(F)F)c1 [Example 35, 5-(1H-imidazo[4,5-c]pyridin-1-yl)-3-{[3-(trifluoromethyl)benzyl]oxy}thiophene-2-carboxamide]
- IC50: 10 to 100 nM

SMILES: NC(=O)c1sc(-n2cnc3ccncc32)cc1OCc1ccc(C(F)(F)F)cc1 [Example 28, 5-(3H-imidazo[4,5-c]pyridin-3-yl)-3-{[4-(trifluoromethyl)benzyl]oxy}thiophene-2-carboxamide]
- IC50: 100 to 1000 nM

SMILES: C[C@@H](Oc1cc(-n2cnc3cnc(CN4CCN(c5ccccc5)CC4)cc32)sc1C(N)=O)c1ccccc1C(F)(F)F [Example 59, 5-{6-[(4-phenylpiperazin-1-yl)methyl]-1H-imidazo[4,5-c]pyridin-1-yl}-3-{(1R)-1-[2-(trifluoromethyl)phenyl]ethoxy}thiophene-2-carboxamide]
- IC50: 10 to 100 nM

SMILES: C[C@@H](Oc1cc(-n2cnc3cnc(CNCCN4CCN(C)CC4)cc32)sc1C(N)=O)c1ccccc1C(F)(F)F [Example 88, 5-[6-({[2-(4-methylpiperazin-1-yl)ethyl]amino}methyl)-1H-imidazo[4,5-c]pyridin-1-yl]-3-{(1R)-1-[2-(trifluoromethyl)phenyl]ethoxy}thiophene-2-carboxamide]
- IC50: 10 to 100 nM

SMILES: NC(=O)c1sc(-n2cnc3cnccc32)cc1OCc1ccc(F)cc1C(F)(F)F [Example 34, 3-{[4-fluoro-2-(trifluoromethyl)benzyl]oxy}-5-(1H-imidazo[4,5-c]pyridin-1-yl)thiophene-2-carboxamide]
- IC50: 10 to 100 nM

SMILES: NC(=O)c1sc(-n2cnc3cnc(C(=O)NCCN4CCOCC4)cc32)cc1OCc1ccccc1C(F)(F)F [Example 5, 1-(5-Carbamoyl-4-{[2-(trifluoromethyl)benzyl]oxy}-2-thienyl)-N-(2-morpholin-4-ylethyl)-1H-imidazo[4,5-c]pyridine-6-carboxamide]
- IC50: 100 to 1000 nM

SMILES: C[C@@H](Oc1cc(-n2cnc3cnc(CN4CCN(CCCO)CC4)cc32)sc1C(N)=O)c1ccccc1C(F)(F)F [Example 108, 5-(6-{[4-(3-hydroxypropyl)piperazin-1-yl]methyl}-1H-imidazo[4,5-c]pyridin-1-yl)-3-{(1R)-1-[2-(trifluoromethyl)phenyl]ethoxy}thiophene-2-carboxamide]
- IC50: < 10 nM

SMILES: CC(Oc1cc(-n2cnc3cnc(CN4CCN(C)CC4)cc32)sc1C(N)=O)c1ccccc1OC(F)F (stereo not shown) [Example 99, 3-{1-[2-(difluoromethoxy)phenyl]ethoxy}-5-{6-[(4-methylpiperazin-1-yl)methyl]-1H-imidazo[4,5-c]pyridin-1-yl}thiophene-2-carboxamide]
- IC50: < 10 nM

SMILES: COc1cc2c(ncn2-c2cc(OCc3ccccc3C(F)(F)F)c(C(N)=O)s2)nc1OC [Example 21A, 5-(5,6-Dimethoxy-1H-imidazo[4,5-b]pyridin-1-yl)-3-{[2-(trifluoromethyl)benzyl]oxy}thiophene-2-carboxamide]
- IC50: 100 to 1000 nM

SMILES: C[C@@H](Oc1cc(-n2cnc3cnc(CN4CCN(Cc5ccccc5)CC4)cc32)sc1C(N)=O)c1ccccc1C(F)(F)F [Example 79, 5-{6-[(4-benzylpiperazin-1-yl)methyl]-1H-imidazo[4,5-c]pyridin-1-yl}-3-{(1R)-1-[2-(trifluoromethyl)phenyl]ethoxy}thiophene-2-carboxamide]
- IC50: 10 to 100 nM

SMILES: COc1ccc2c(ncn2-c2cc(OCc3ccccc3C(F)(F)F)c(C(N)=O)s2)n1 [Example 23, 5-(5-methoxy-1H-imidazo[4,5-b]pyridin-1-yl)-3-{[2-(trifluoromethyl)benzyl]oxy}thiophene-2-carboxamide]
- IC50: 10 to 100 nM

SMILES: CCN(CC)Cc1cc2c(cn1)ncn2-c1cc(OCc2ccccc2C(F)(F)F)c(C(N)=O)s1 [Example 6, 5-{6-[(Diethylamino)methyl]-1H-imidazo[4,5-c]pyridin-1-yl}-3-{[2-(trifluoromethyl)benzyl]oxy}thiophene-2-carboxamide]
- IC50: 100 to 1000 nM
